Data published in US20200239530A1, “COMPOUNDS AND METHODS OF MODULATING PROTEIN DEGRADATION” (Vividion Therapeutics, Inc., priority 2017, published 2020).

Target: T1, POGZ Pogo transposable element with ZNF domain (Homo sapiens, UniProt Q7Z3K3)
T1 construct: Cells were resuspended in cold PBS on ice and sonicated with a probe sonicator to achieve lysis; endogenous in cells
T1 sequence (Q7Z3K3 1-1410): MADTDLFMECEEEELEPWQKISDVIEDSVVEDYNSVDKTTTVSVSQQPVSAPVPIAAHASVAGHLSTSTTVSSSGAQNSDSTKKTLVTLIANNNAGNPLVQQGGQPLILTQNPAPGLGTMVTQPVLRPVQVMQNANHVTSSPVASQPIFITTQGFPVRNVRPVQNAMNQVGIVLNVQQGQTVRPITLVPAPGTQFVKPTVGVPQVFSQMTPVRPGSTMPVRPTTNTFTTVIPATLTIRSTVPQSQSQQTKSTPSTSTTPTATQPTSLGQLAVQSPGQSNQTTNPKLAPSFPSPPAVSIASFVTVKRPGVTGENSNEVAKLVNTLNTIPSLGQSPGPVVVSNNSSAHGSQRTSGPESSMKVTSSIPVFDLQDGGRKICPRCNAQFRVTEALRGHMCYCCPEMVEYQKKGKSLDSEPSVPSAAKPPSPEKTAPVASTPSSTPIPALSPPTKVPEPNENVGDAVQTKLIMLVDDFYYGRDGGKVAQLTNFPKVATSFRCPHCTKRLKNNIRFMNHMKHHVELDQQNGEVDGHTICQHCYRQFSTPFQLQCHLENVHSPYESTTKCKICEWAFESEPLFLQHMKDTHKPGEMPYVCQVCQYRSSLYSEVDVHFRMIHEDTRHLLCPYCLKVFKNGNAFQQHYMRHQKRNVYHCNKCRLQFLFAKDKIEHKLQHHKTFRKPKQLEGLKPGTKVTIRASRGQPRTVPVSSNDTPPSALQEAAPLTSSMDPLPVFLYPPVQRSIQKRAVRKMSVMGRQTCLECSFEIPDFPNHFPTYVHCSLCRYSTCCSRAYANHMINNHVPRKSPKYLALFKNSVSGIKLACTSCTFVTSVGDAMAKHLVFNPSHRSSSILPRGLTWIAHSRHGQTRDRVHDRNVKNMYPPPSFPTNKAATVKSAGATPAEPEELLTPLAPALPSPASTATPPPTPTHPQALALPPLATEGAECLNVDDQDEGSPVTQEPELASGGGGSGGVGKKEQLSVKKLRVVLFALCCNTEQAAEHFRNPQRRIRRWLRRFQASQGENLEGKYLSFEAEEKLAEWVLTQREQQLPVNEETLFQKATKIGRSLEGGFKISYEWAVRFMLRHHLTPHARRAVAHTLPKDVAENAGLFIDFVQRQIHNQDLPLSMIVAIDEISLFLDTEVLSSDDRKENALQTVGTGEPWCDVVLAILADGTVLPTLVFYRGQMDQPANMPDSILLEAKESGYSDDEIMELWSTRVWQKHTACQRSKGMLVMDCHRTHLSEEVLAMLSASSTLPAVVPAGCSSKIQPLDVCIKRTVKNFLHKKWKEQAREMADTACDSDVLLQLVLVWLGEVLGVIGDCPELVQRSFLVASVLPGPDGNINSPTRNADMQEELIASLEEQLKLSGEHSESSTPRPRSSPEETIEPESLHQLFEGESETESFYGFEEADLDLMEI
Experiment: Cysteine liganding, probe competition
Type: binding
Summary of the method: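 Probe competition in native proteome: 5 mg/ml lysate, compound 1 hr 25° C, then desthiobiotin iodoacetamide (10 mM stock) 1 hr 25° C; acetone ppt, urea/DTT reduction, iodoacetamide alkylation, trypsin, streptavidin pull-down.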

SMILES	Liganded (POGZ Res# 547, uniprot Q7Z3K3)	100 Max (uniprot Q7Z3K3)	100 ave (uniprot Q7Z3K3)	500 Max (uniprot Q7Z3K3)	500 ave (uniprot Q7Z3K3)
COc1ccc2c(c1)CCCN2C(=O)CCl [KB02]	YES	–	–	–	–
O=C(CCl)Nc1cc(C(F)(F)F)cc(C(F)(F)F)c1 [KBO3]	–	2.21	−8.9575	15.64	13.995
